One assay concerns the target T1, HLA-DRB1*01:01 (Homo sapiens, UniProt P01903+P01911, A100R/D57E/F55L/F60I/F76Y/I96L/L162R/M171V/P40L/Q125E/R42F/V115G/Y59C).
T1 construct: EBV transformed homozygous cell lines were used as sources of MHC molecules; endogenous in cells; host or cells: EBV transformed homozygous cell lines
Nature of the assay: HLA class II peptide binding, inhibition of radiolabeled peptide binding to purified MHC. The following applies: for DRB1*01:01 binding capacity, WT/cit ratio: ratio of WT IC50 to Cit IC50.

A further assay addresses T2, HLA-DRB1*04:01 (Homo sapiens, UniProt P01903+P01911, A100K/A169T/F76Y/I96L/K127E/L162R/M171V/N62H/P40V/Q125Y/R42H/S133A/S149N/S66Y/V115G/V209L/W38E).
T2 construct: EBV transformed homozygous cell lines were used as sources of MHC molecules; endogenous in cells; host or cells: EBV transformed homozygous cell lines
The assay is described as above. The settings on record: for DRB1*04:01 binding capacity, WT/cit ratio: ratio of WT IC50 to Cit IC50.

The mark [1] stands for this setting: citrullinated 15-mer peptide (X = citrulline), purified HLA-DRB1*01:01, read-out: DRB1*01:01 binding capacity, Cit peptide (IC50 nM).
Setting [2] is: citrullinated 15-mer peptide (X = citrulline), purified HLA-DRB1*04:01, read-out: DRB1*04:01 binding capacity, Cit peptide (IC50 nM).
The mark [3] stands for this setting: citrullinated 15-mer (X), purified MHC, inhibition of radiolabeled peptide binding, dash = IC50 >40,000 nM, read-out: DRB1*01:01 binding capacity, Cit peptide (IC50 nM).
The mark [4] stands for this setting: citrullinated 15-mer (X), purified MHC, inhibition of radiolabeled peptide binding, dash = IC50 >40,000 nM, read-out: DRB1*04:01 binding capacity, Cit peptide (IC50 nM).

Molecules are shown by their SMILES. Where two headings read alike, the source gives them in different places. Square brackets hold non-standard residues; d marks the D form. Peptide text beside a SMILES is read from it. Cit = NC(=O)NCCC[C@H](N)C(=O)O Where only a bound is given, the exact number is not on record here.

Take `CC(C)[C@H](NC(=O)CNC(=O)[C@H](C)NC(=O)[C@H](C)N)C(=O)N[C@@H](CCCCN)C(=O)NCC(=O)N[C@@H](CC(=O)O)C(=O)N[C@@H](CCCNC(N)=O)C(=O)NCC(=O)N[C@@H](CCC(=O)O)C(=O)N[C@H](C(=O)NCC(=O)N[C@@H](C)C(=O)N[C@H](C(=O)NCC(=O)O)C(C)C)[C@@H](C)O` [AAGVKGDXGETGAVG] (H-AAGVKGD[Cit]GETGAVG-OH): the concentration for half-maximal inhibition (IC50) – broadly, the concentration needed to halve the response being measured – at HLA-DRB1*01:01 (setting [1]) is 2010 nM; at HLA-DRB1*04:01 (setting [2]), over 40000 nM.

In the case of `CC(C)C[C@H](NC(=O)[C@H](C)NC(=O)[C@H](CC(=O)O)NC(=O)[C@H](CC(N)=O)NC(=O)[C@H](CC(N)=O)NC(=O)[C@H](CCCNC(=N)N)NC(=O)[C@H](CC(N)=O)NC(=O)[C@H](C)NC(=O)[C@H](C)N)C(=O)N[C@@H](CCCNC(N)=O)C(=O)N[C@@H](CCC(N)=O)C(=O)N[C@@H](C)C(=O)N[C@@H](CCCCN)C(=O)N[C@@H](CCC(N)=O)C(=O)N[C@@H](CCC(=O)O)C(=O)O` [AANRNNDALXQAKQE] (H-AANRNNDAL[Cit]QAKQE-OH; N-terminus and C-terminus assumed), the half-inhibitory concentration (IC50) at HLA-DRB1*01:01 (setting [3]) and on HLA-DRB1*04:01 (setting [4]) was over 40000 nM each time. The “DRB1*01:01 binding capacity, WT/cit ratio” value on HLA-DRB1*01:01 amounted to 1.0. In addition, the “DRB1*04:01 binding capacity, WT/cit ratio” value on HLA-DRB1*04:01 turned out to be 1.0.

With `CC(C)C[C@H](NC(=O)[C@H](C)NC(=O)[C@H](CC(=O)O)NC(=O)[C@H](CC(N)=O)NC(=O)[C@H](CC(N)=O)NC(=O)[C@H](CCCNC(N)=O)NC(=O)[C@H](CC(N)=O)NC(=O)[C@H](C)NC(=O)[C@H](C)N)C(=O)N[C@@H](CCCNC(=N)N)C(=O)N[C@@H](CCC(N)=O)C(=O)N[C@@H](C)C(=O)N[C@@H](CCCCN)C(=O)N[C@@H](CCC(N)=O)C(=O)N[C@@H](CCC(=O)O)C(=O)O` [AANXNNDALRQAKQE] (H-AAN[Cit]NNDALRQAKQE-OH; N-terminus and C-terminus assumed), the half-inhibitory concentration (IC50) on HLA-DRB1*01:01 (setting [3]) and on HLA-DRB1*04:01 (setting [4]) was over 40000 nM each time. In addition, the “DRB1*01:01 binding capacity, WT/cit ratio” value on HLA-DRB1*01:01 is 1.0. Besides, the “DRB1*04:01 binding capacity, WT/cit ratio” value at HLA-DRB1*04:01 is 1.0.

As to `CC(C)C[C@H](NC(=O)[C@H](C)NC(=O)[C@H](CC(=O)O)NC(=O)[C@H](CC(N)=O)NC(=O)[C@H](CC(N)=O)NC(=O)[C@H](CCCNC(=N)N)NC(=O)[C@H](CC(N)=O)NC(=O)[C@H](C)NC(=O)[C@H](C)NC(=O)[C@H](CCC(=O)O)NC(=O)[C@H](CO)NC(=O)[C@H](CC(C)C)NC(=O)[C@H](CC(=O)O)NC(=O)[C@H](C)N)C(=O)N[C@@H](CCCNC(N)=O)C(=O)O` [ADLSEAANRNNDALX] (H-ADLSEAANRNNDAL[Cit]-OH), the IC50 turned out to be 6180 nM on HLA-DRB1*01:01 (setting [3]) and 23300 nM at HLA-DRB1*04:01 (setting [4]).

`CC(C)C[C@H](NC(=O)[C@H](C)NC(=O)[C@H](CC(=O)O)NC(=O)[C@H](CC(N)=O)NC(=O)[C@H](CC(N)=O)NC(=O)[C@H](CCCNC(N)=O)NC(=O)[C@H](CC(N)=O)NC(=O)[C@H](C)NC(=O)[C@H](C)NC(=O)[C@H](CCC(=O)O)NC(=O)[C@H](CO)NC(=O)[C@H](CC(C)C)NC(=O)[C@H](CC(=O)O)NC(=O)[C@H](C)N)C(=O)N[C@@H](CCCNC(=N)N)C(=O)O` [ADLSEAANXNNDALR] (H-ADLSEAAN[Cit]NNDALR-OH): the IC50 on HLA-DRB1*01:01 (setting [3]) is 7340 nM; on HLA-DRB1*04:01 (setting [4]) it was 22200 nM.

As for `CC(C)C[C@H](NC(=O)CNC(=O)[C@H](CCCNC(=N)N)NC(=O)[C@H](CCC(=O)O)NC(=O)CNC(=O)[C@@H]1CCCN1C(=O)[C@H](CCC(=O)O)NC(=O)CNC(=O)[C@H](C)N)C(=O)N[C@@H](CCCCN)C(=O)NCC(=O)N[C@@H](Cc1c[nH]cn1)C(=O)N[C@@H](CCCNC(N)=O)C(=O)NCC(=O)N[C@@H](Cc1ccccc1)C(=O)O` [AGEPGERGLKGHXGF] (H-AGEPGERGLKGH[Cit]GF-OH), the IC50 on HLA-DRB1*01:01 (setting [1]) is 594 nM; at HLA-DRB1*04:01 (setting [2]), over 40000 nM.

Turning to `CC(C)C[C@H](NC(=O)CNC(=O)[C@H](CCCNC(N)=O)NC(=O)[C@H](CCC(=O)O)NC(=O)CNC(=O)[C@@H]1CCCN1C(=O)[C@H](CCC(=O)O)NC(=O)CNC(=O)[C@H](C)N)C(=O)N[C@@H](CCCCN)C(=O)NCC(=O)N[C@@H](Cc1c[nH]cn1)C(=O)N[C@@H](CCCNC(=N)N)C(=O)NCC(=O)N[C@@H](Cc1ccccc1)C(=O)O` [AGEPGEXGLKGHRGF] (H-AGEPGE[Cit]GLKGHRGF-OH), the values for the 50% inhibitory concentration (IC50) on HLA-DRB1*01:01 (setting [1]) and on HLA-DRB1*04:01 (setting [2]) were 783 nM and over 40000 nM, respectively.

Take `CC[C@H](C)[C@H](NC(=O)[C@H](C)N)C(=O)N[C@@H](CC(N)=O)C(=O)N[C@H](C(=O)N[C@@H](CCC(=O)O)C(=O)N[C@@H](Cc1ccccc1)C(=O)N[C@@H](CCCCN)C(=O)N[C@@H](CC(N)=O)C(=O)N[C@H](C(=O)N[C@@H](CCCNC(N)=O)C(=O)N[C@H](C(=O)N[C@@H](CC(N)=O)C(=O)N[C@@H](CCC(=O)O)C(=O)N[C@@H](CCCCN)C(=O)N[C@H](C(=O)O)C(C)C)[C@@H](C)O)[C@@H](C)O)[C@@H](C)O` [AINTEFKNTXTNEKV] (H-AINTEFKNT[Cit]TNEKV-OH): the figures for the half-maximal inhibitory concentration (IC50) at HLA-DRB1*01:01 (setting [3]) and at HLA-DRB1*04:01 (setting [4]) were 2370 nM and 931 nM, respectively.

On to `CSCC[C@H](NC(=O)[C@H](CCC(N)=O)NC(=O)[C@@H](NC(=O)[C@H](CC(N)=O)NC(=O)[C@H](C)N)C(C)C)C(=O)N[C@H](C(=O)N[C@@H](Cc1ccccc1)C(=O)N[C@@H](CC(C)C)C(=O)N[C@@H](CCCNC(N)=O)C(=O)N[C@@H](CC(C)C)C(=O)N[C@@H](CC(C)C)C(=O)N[C@@H](CO)C(=O)N[C@H](C(=O)N[C@@H](CCC(=O)O)C(=O)NCC(=O)O)[C@@H](C)O)[C@@H](C)O` [ANVQMTFLXLLSTEG] (H-ANVQMTFL[Cit]LLSTEG-OH), for which the IC50 on HLA-DRB1*01:01 (citrullinated peptide as listed (X at Cit position), read-out: DRB1*01:01 binding capacity Cit peptide (IC50 nM)) was found to be 65 nM; at HLA-DRB1*04:01 (citrullinated peptide as listed (X at Cit position), read-out: DRB1*04:01 binding capacity Cit peptide (IC50 nM)) it was 1060 nM.

For the molecule `CC[C@H](C)[C@H](NC(=O)[C@H](CCC(=O)O)NC(=O)[C@H](CC(=O)O)NC(=O)[C@H](CCC(N)=O)NC(=O)[C@H](CC(C)C)NC(=O)[C@H](CCCNC(N)=O)NC(=O)CNC(=O)[C@@H](NC(=O)[C@@H](NC(=O)[C@H](CC(=O)O)NC(=O)[C@H](CCC(N)=O)NC(=O)[C@H](Cc1ccc(O)cc1)NC(=O)[C@H](CC(N)=O)NC(=O)[C@H](C)N)[C@@H](C)O)[C@@H](C)CC)C(=O)N[C@@H](CCC(N)=O)C(=O)O` [ANYQDTIGXLQDEIQ] (H-ANYQDTIG[Cit]LQDEIQ-OH), the values for the IC50 on HLA-DRB1*01:01 (setting [1]) and at HLA-DRB1*04:01 (setting [2]) were 1050 nM and 6720 nM, respectively.

Take `CC(C)C[C@H](NC(=O)[C@H](CCCNC(=N)N)NC(=O)[C@H](C)N)C(=O)N[C@@H](CC(=O)O)C(=O)N[C@@H](CC(C)C)C(=O)N[C@@H](CCC(=O)O)C(=O)N[C@@H](CCCNC(N)=O)C(=O)N[C@@H](CCCCN)C(=O)N[C@H](C(=O)N[C@@H](CCC(=O)O)C(=O)N[C@@H](CO)C(=O)N[C@@H](CC(C)C)C(=O)N[C@@H](CCC(N)=O)C(=O)N[C@@H](CCC(=O)O)C(=O)N[C@@H](CCC(=O)O)C(=O)O)C(C)C` [ARLDLEXKVESLQEE] (H-ARLDLE[Cit]KVESLQEE-OH): the values for the concentration for half-maximal inhibition (IC50) on HLA-DRB1*01:01 (setting [3]) and on HLA-DRB1*04:01 (setting [4]) were 1340 nM and 12000 nM, respectively.

For the molecule `CC(C)C[C@H](NC(=O)CNC(=O)[C@H](CCCNC(=N)N)NC(=O)[C@@H](N)CCC(=O)O)C(=O)N[C@@H](CCCCN)C(=O)NCC(=O)N[C@@H](Cc1c[nH]cn1)C(=O)N[C@@H](CCCNC(N)=O)C(=O)NCC(=O)N[C@@H](Cc1ccccc1)C(=O)N[C@H](C(=O)NCC(=O)N[C@@H](CC(C)C)C(=O)N[C@@H](CCC(N)=O)C(=O)NCC(=O)O)[C@@H](C)O` [ERGLKGHXGFTGLQG] (H-ERGLKGH[Cit]GFTGLQG-OH), the IC50 on HLA-DRB1*01:01 (setting [1]) stood at 28 nM.

The record behind these values is publication PMC5421785, “Citrullination only infrequently impacts peptide binding to HLA class II MHC” (PLoS ONE, 2017).
